Assay [1] relates to P. falciparum NF54 (MRA-1000). In words: SYBR Green I growth inhibition assay, NF54. The settings on record: early-ring stage, 72 h exposure. It counts as cell-based, Plasmodium falciparum. The method, then:
(§1) Fig. 1. […] (B) SYBR Green–based dose response assays were conducted on early-ring stage parasites (6 hours after invasion). […] 3D7 WT (blue), NF54 (green), drug-resistant strains Dd2 (red), HB3 (black), W2 (gray), and D10-ACP-GFP (purple) lines (Sigmoidal, 4PL, X is concentration, n ≥ 3, nonlinear regression, CI: 95%). (C) Schematic diagram of the development of P. falciparum after two consecutive erythrocytic cycles. The time points at which MED6-189 was introduced are depicted in green. HPS, hours post synchronization. […] The images depict various developmental stages of the parasite’s intraerythrocytic life cycle. Bordered images represent time points when drug was first introduced (n = 3 biological replicates, P < 0.05).
(§2) Detailed information on materials and methods is available in the supplementary materials. […] P. knowlesi assays were quantitatively measured by flow cytometry using SYBR Green I and Mitrotracker Deep Red, as previously described ([84], [85]), on a Beckman Coulter CytoFLEX. […]
(§3) P. falciparum in vitro SYBR green fluorescence-based assays The anti-malarial activity of individual analogues were evaluated in-vitro against P. falciparum 3D7 (MRA-102, drug […]
(§4) green-I based fluorescence assay. Parasite growth rate and stages of development were determined via microscopy through Giemsa-stained smears of the cultures. […]

Assay [2] concerns P. falciparum HB3 (MRA-155). Kind of assay: SYBR Green I growth inhibition assay, HB3. The settings on record: early-ring stage, 72 h exposure. It counts as cell-based, Plasmodium falciparum. The method, then:
as §1, §2, §3, §4

In general, IC50 refers to the point on the concentration scale where inhibition reaches its midpoint. A lower IC50 goes with greater potency in that assay.

For `[C-]#[N+][C@]1(C)CC[C@H]2[C@@H]([C@@H](C(C)C)CC[C@]2(C)[N+]#[C-])[C@H]1O` [MED6-189], the IC50 in assay [1] (Plasmodium falciparum, NF54, 72 h) was 28 ± 5 nM; in assay [1] it was 27 nM; in assay [2] (Plasmodium falciparum, HB3, 72 h), 23 ± 2 nM; in assay [2], 22.8 nM.
